Assays:
Assay type in all cases: in vivo
[1] = tested on: mustard beetle larvae (Phaedon cochleariae); assay: Phaedon cochleariae test (PHAECO spray application); settings: application rate of 500 g/ha; Chinese cabbage leaf-disks; after 7 days
Protocol: Solvent: 78.0 parts by weight of acetone and 1.5 parts by weight of dimethylformamide
Emulsifier: 0.5 parts by weight of alkylaryl polyglycolether
To produce a suitable preparation of active compound, 1 part by weight of active compound is mixed with the stated amount of solvent and emulsifier, and the concentrate is diluted with emulsifier-containing water to the desired concentration. Chinese cabbage (Brassica pekinesis) leaf-disks are sprayed with a preparation of the active ingredient of the desired concentration. Once dry, the leaf disks are infested with mustard beetle larvae (Phaedon cochleariae). After 7 days mortality in % is determined. 100% means that all beetle larvae have been killed and 0% means that none of the beetle larvae have been killed.

[2] = tested on: tobacco cutworm (Spodoptera litura) larvae; assay: Test against tobacco cutworm (Spodoptera litura) larvae, leaf dip; settings: active compound concentration of 100 ppm; third-instar larvae on sweet potato leaves; after 7 days
Protocol: (§1) Unless not mentioned otherwise, the test solutions were prepared as follows:
(§2) Containing as solvent: Dimethylformamide, 3 parts by weight; and as emulsifier: Polyoxyethylene alkyl phenyl ether, 1 part by weight
(§3) To prepare the test solution, 1 part by weight of an active compound is mixed with the above-mentioned amount of solvent containing the above-mentioned amount of emulsifier, and the mixture is diluted with water to the desired concentration.
The leaves of sweet potato were immersed in the test solution at the appropriate concentration, and the leaves were dried in air. The leaves were then placed in a petri dish having a diameter of 9 cm, and ten third-instar larvae of tobacco cutworm were released therein. The petri dish was placed in a temperature-controlled chamber at 25° C. After 2 days and 4 days sweet potato leaves were additionally added. After 7 days, the number of dead larvae was counted to calculate the insecticidal activity. An insecticidal activity of 100% means that all larvae were killed, whereas an insecticidal activity of 0% means that no larva was killed. In the current test, the results of two petri dishes for each partition were averaged.

Musca domestica = Musca domestica test; settings: application rate of 100 ppm; adults, sugar sponge; after 2 days
Protocol: (§4) Solvent: dimethyl sulfoxide
To produce a suitable preparation of active compound, 10 mg of active compound are dissolved in 0.5 ml solvent, and the concentrate is diluted with water to the desired concentration. Prior to the assay, a piece or kitchen sponge is soaked with a mixture of sugar and compound solution and placed into a container. 10 adults (Musca domestica) are placed into the container and closed with a perforated lid. After 2 days mortality in % is determined. 100% means that all the flies have been killed; 0% means that none of the flies have been killed.

[3] = tested on: cucurbit leaf beetle (Aulacophora femoralis); assay: Test against cucurbit leaf beetle (Aulacophora femoralis), leaf dip; settings: active compound concentration of 100 ppm; second-instar larvae on cucumber leaves; after 7 days
Protocol: as §1, §2, §3
Cucumber leaves were immersed in the test solution at the appropriate concentration, and the leaves were dried in air. The leaves were then placed in a plastic cup containing sterilized black soil, and five second-instar larvae of cucurbit leaf beetle were released therein. The plastic cup was placed in a temperature-controlled chamber at 25° C. After 7 days, the number of dead larvae was counted, and thus the insecticidal activity was calculated. An insecticidal activity of 100% means that all beetles were killed, whereas an insecticidal activity of 0% means that no beetle was killed.

Ctenocephalides felis = Ctenocephalides felis test (CTECFE), blood feeding; settings: application rate of 100 ppm in cattle blood; adult unfed fleas; after 2 days
Protocol: as §4
To produce a suitable preparation of active compound, 10 mg of active compound are dissolved in 0.5 ml solvent, and the concentrate is diluted with cattle blood to the desired concentration.
Approximately 10 to 15 adult unfed (Ctenocepahlides felis) are placed in flea chambers. The blood chamber, are sealed with paraffin on the bottom are filled with cattle blood supplied with compound solution and placed on top of the flea chamber, so that the fleas are able to suck the blood. The blood chamber is heated to 37° C. whereas the flea chamber is kept at room temperature. After 2 days mortality in % is determined. 100% means that all the fleas have been killed; 0% means that none of the fleas have been killed.

[4] = tested on: two-spotted spider mite (Tetranychus urticae); assay: Test against two-spotted spider mite (Tetranychus urticae), spray; settings: concentration of 100 ppm; adult mites on kidney beans; after 7 days
Protocol: as §1, §2, §3
50 to 100 adult two-spotted spider mites were inoculated onto the leaves of kidney beans at the two-true leaf stage, which plant had been cultivated in a pot having a diameter of 6 cm. After one day, test solution at the appropriate concentration was sprayed thereon in a sufficient amount using a spray gun. After the spraying, the plant pot was placed inside a greenhouse, and after 7 days, the acaricidal activity was calculated. An acaricidal activity of 100% means that all mites were killed, whereas an acaricidal activity of 0% means that no mite was killed.

Lucilia cuprina larvae = assay: Lucilia cuprina test; settings: application rate of 100 ppm; larvae on minced horse meat; after 2 days
Protocol: as §4
To produce a suitable preparation of active compound, 10 mg of active compound are dissolved in 0.5 ml solvent, and the concentrate is diluted with water to the desired concentration. Approximately 20-30 (Lucilia cuprina larvae) are transferred into a test tube containing 1 cm^3 of minced horse meat and 0.5 ml aqueous dilution of test compound. After 2 days mortality in % is determined. 100% means that all the larvae have been killed; 0% means that none of the larvae have been killed.

| SMILES | activity (mortality in %) [1] [%] | insecticidal activity [2] [%] | activity (mortality in %) (Musca domestica) [%] | insecticidal activity [3] [%] | activity (mortality in %) (Ctenocephalides felis) [%] | acaricidal activity rate [4] [%] | activity (mortality in %) (Lucilia cuprina larvae) [%] |
| --- | --- | --- | --- | --- | --- | --- | --- |
| Cc1cc(C(n2nc(C)c(Br)c2C)C(F)(F)F)cc(C)c1NC(=O)c1cccc([N+](=O)[O-])c1 (racemic) [11-143] | 100 |  |  |  |  |  |  |
| CCOC(=O)Nc1cccc(C(=O)Nc2c(I)cc(C(OCC)(C(F)(F)F)C(F)(F)F)cc2I)c1 [1-24] |  | 100 | 90 |  |  |  |  |
| CCOC(c1cc(I)c(NC(=O)c2cccc(NC(=O)c3ccccc3)c2)c(I)c1)(C(F)(F)F)C(F)(F)F [1-25] |  | 100 | 80 | 100 | 90 |  |  |
| CCOC(c1cc(I)c(NC(=O)c2cccc(NC(=O)c3ccccc3F)c2)c(I)c1)(C(F)(F)F)C(F)(F)F [1-26] |  | 100 | 90 | 100 | 100 |  |  |
| CCOC(c1cc(I)c(NC(=O)c2cccc(NC(=O)c3cccc(F)c3)c2)c(I)c1)(C(F)(F)F)C(F)(F)F [1-27] |  | 100 | 80 | 100 | 90 | 100 |  |
| CCOC(c1cc(I)c(NC(=O)c2cccc(NC(=O)c3cccnc3Cl)c2)c(I)c1)(C(F)(F)F)C(F)(F)F [1-40] |  | 100 | 100 | 100 | 90 | 100 |  |
| CCOC(c1cc(I)c(NC(=O)c2cccc(NC(=O)c3cccnc3F)c2)c(I)c1)(C(F)(F)F)C(F)(F)F [1-59] |  | 100 | 100 | 100 | 95 |  |  |
| CCOC(c1cc(I)c(NC(=O)c2cccc(NC(=O)c3ccc(Cl)nc3)c2)c(I)c1)(C(F)(F)F)C(F)(F)F [1-60] |  | 100 | 100 | 100 | 100 | 100 |  |
| C#CCOC(c1cc(I)c(NC(=O)c2cccc(NC(=O)c3cccnc3Cl)c2)c(I)c1)(C(F)(F)F)C(F)(F)F [1-80] |  | 100 | 100 |  | 80 |  |  |
| Cc1cc(C(n2cc(F)cn2)(C(F)(F)F)C(F)(F)F)cc(C)c1NC(=O)c1cccc(NC(=O)c2cccnc2Cl)c1 [2-6] |  | 100 |  | 100 |  | 100 |  |
| O=C(Nc1c(Br)cc(C(CF)(n2cc(Cl)cn2)C(F)(F)F)cc1Br)c1cccc(NC(=O)c2cccnc2Cl)c1 (stereo not shown) [2-24] |  | 100 |  | 100 |  | 100 |  |
| Cc1cc(C(n2cc(Cl)cn2)(C(F)(F)F)C(F)(F)F)cc(C)c1NC(=O)c1cccc(NC(=O)c2cccnc2Cl)c1 [2-51] |  | 100 |  |  | 100 | 100 |  |
| CCc1cc(C(n2cc(Cl)cn2)(C(F)(F)F)C(F)(F)F)cc(C)c1NC(=O)c1cccc(NC(=O)c2cccnc2Cl)c1 [2-55] |  | 100 |  | 100 |  | 100 |  |
| O=C(Nc1c(Br)cc(C(n2cc(Cl)cn2)(C(F)(F)F)C(F)(F)F)cc1Br)c1cccc(NC(=O)c2cccnc2Cl)c1 [2-62] |  | 100 |  | 100 |  | 100 |  |
| CCc1cc(C(n2cc(Br)cn2)C(F)(F)F)cc(C)c1NC(=O)c1cccc(NC(=O)c2cccnc2Cl)c1 (stereo not shown) [2-77] |  | 100 |  |  | 90 |  |  |
| CC(c1cc(Br)c(NC(=O)c2cccc(NC(=O)c3cccnc3F)c2)c(Br)c1)(n1cc(Br)cn1)C(F)(F)F (stereo not shown) [2-82] |  | 100 |  | 100 |  | 100 |  |
| CC(c1cc(Br)c(NC(=O)c2cccc(NC(=O)c3cccnc3Cl)c2)c(Br)c1)(n1cc(Br)cn1)C(F)(F)F (stereo not shown) [2-83] |  | 100 |  | 100 |  | 100 |  |
| Cc1cc(C(n2cc(Br)cn2)(C(F)(F)F)C(F)(F)F)cc(C)c1NC(=O)c1cccc(NC(=O)c2cccnc2Cl)c1 [2-84] |  | 100 |  |  | 95 | 100 |  |
| Cc1cc(C(n2cc(C(F)(F)F)cn2)C(F)(F)F)cc(C)c1NC(=O)c1cccc(NC(=O)c2cccnc2F)c1 (stereo not shown) [2-103] |  | 100 |  | 100 | 95 |  |  |
| Cc1cc(C(n2cc(C(F)(F)F)cn2)C(F)(F)C(F)(F)F)cc(C)c1NC(=O)c1cccc(NC(=O)c2cccnc2Cl)c1 (stereo not shown) [2-104] |  | 100 | 80 | 100 | 100 |  | 90 |
| Cc1cc(C(n2cc(C(F)(F)F)cn2)(C(F)(F)F)C(F)(F)F)cc(C)c1NC(=O)c1cccc(NC(=O)c2cccnc2F)c1 [2-108] |  | 100 |  | 100 | 100 |  |  |
| Cc1cc(C(n2cc(C(F)(F)F)cn2)(C(F)(F)F)C(F)(F)F)cc(C)c1NC(=O)c1cccc(NC(=O)c2cccnc2Cl)c1 [2-109] |  | 100 |  | 100 | 100 |  |  |
| Cc1cc(C(n2cc(Cl)c(C(F)(F)C(F)(F)F)n2)(C(F)(F)F)C(F)(F)F)cc(C)c1NC(=O)c1cccc(NC(=O)c2cccnc2Cl)c1 [2-120] |  | 100 |  |  |  |  | 90 |
| Cc1cc(C(n2nc(C(F)(F)F)cc2C(F)(F)F)(C(F)(F)F)C(F)(F)F)cc(C)c1NC(=O)c1cccc(NC(=O)c2ccccc2F)c1 [2-124] |  | 100 |  |  |  |  | 90 |
| Cc1cc(C(N=[N+]=[N-])(C(F)(F)F)C(F)(F)F)cc(C)c1NC(=O)c1cccc(NC(=O)c2cccnc2Cl)c1 [2-145] |  | 100 |  | 100 |  | 100 |  |
| Cc1cc(C(n2cncn2)(C(F)(F)F)C(F)(F)F)cc(C)c1NC(=O)c1cccc(NC(=O)c2cccnc2Cl)c1 [2-148] |  |  |  |  | 95 |  |  |
| Cc1cc(C(n2cncn2)(C(F)(F)F)C(F)(F)F)cc(Br)c1NC(=O)c1cccc(NC(=O)c2ccccc2F)c1 [2-151] |  |  |  |  | 90 |  |  |
| CCc1cc(C(C#N)(C(F)(F)F)C(F)(F)F)cc(C)c1NC(=O)c1cccc(NC(=O)c2cccnc2Cl)c1 [4-5] |  | 100 |  | 100 |  | 100 |  |

Source: US20110201603A1, “Novel Acylaminobenzamide Derivatives” (Bayer CropScience AG, priority 2008, published 2011)
